From BindingDB's records for doi:10.1021/jm010087e (The University of Western Australia, 2001)

Assay: Inhibitory activity against clostridium histolyticum collagenase

Q: With `CC(C(=O)NO)N(Cc1ccccc1[N+](=O)[O-])S(=O)(=O)c1cccc(C(F)(F)F)c1` (stereo not given) [N-Hydroxy-2-[(2-nitro-benzyl)-(3-trifluoromethyl-benzenesulfonyl)-amino]-propionamide] as the compound, how does the Ki read?
A: 5 nM

Q: For `CC(C(=O)NO)N(Cc1ccccc1[N+](=O)[O-])Sc1ccc([N+](=O)[O-])cc1` (stereo not given) [N-Hydroxy-2-[(2-nitro-benzyl)-(4-nitro-phenylsulfanyl)-amino]-propionamide], which Ki is on record?
A: 13 nM

Q: With `CC(C(=O)NO)N(Cc1ccccc1[N+](=O)[O-])S(=O)(=O)C(F)(F)C(F)(F)C(F)(F)C(F)(F)F` (stereo not given) [N-Hydroxy-2-[(2-nitro-benzyl)-(nonafluorobutane-1-sulfonyl)-amino]-propionamide] as the compound, how does the Ki read?
A: 10 nM

Q: With `CC(C(=O)NO)N(Cc1ccccc1[N+](=O)[O-])S(=O)(=O)c1cccc2cccnc12` (stereo not given) [N-Hydroxy-2-[(2-nitro-benzyl)-(quinoline-8-sulfonyl)-amino]-propionamide] as the compound, how does the Ki read?
A: 9 nM

Q: Which Ki does the source give for `CC(C(=O)NO)N(Cc1ccccc1[N+](=O)[O-])S(=O)(=O)c1cccs1` (stereo not given) [N-Hydroxy-2-[(2-nitro-benzyl)-(thiophene-2-sulfonyl)-amino]-propionamide] here?
A: 10 nM

Q: For `Cc1ccc(S(=O)(=O)N(Cc2ccccc2[N+](=O)[O-])C(C)C(=O)NO)cc1` (stereo not given) [N-Hydroxy-2-[(2-nitro-benzyl)-(toluene-4-sulfonyl)-amino]-propionamide], which Ki is on record?
A: 41 nM

Q: Which Ki does the source give for `CC(C(=O)NO)N(Cc1ccccc1[N+](=O)[O-])S(=O)(=O)Cc1ccccc1` (stereo not given) [N-Hydroxy-2-[(2-nitro-benzyl)-phenylmethanesulfonyl-amino]-propionamide] here?
A: 55 nM

Q: Which Ki does the source give for `CC(C(=O)NO)N(Cc1ccccc1[N+](=O)[O-])S(=O)(=O)C(Cl)(Cl)Cl` (stereo not given) [N-Hydroxy-2-[(2-nitro-benzyl)-trichloromethanesulfonyl-amino]-propionamide] here?
A: 64 nM

Q: For `CC(C(=O)NO)N(Cc1ccccc1[N+](=O)[O-])S(=O)(=O)C(F)(F)F` (stereo not given) [N-Hydroxy-2-[(2-nitro-benzyl)-trifluoromethanesulfonyl-amino]-propionamide], which Ki is on record?
A: 70 nM

Q: For `CC(C(=O)NO)N(Cc1ccccc1[N+](=O)[O-])S(=O)(=O)c1cccc([N+](=O)[O-])c1` (stereo not given) [N-Hydroxy-2-[(3-nitro-benzenesulfonyl)-(2-nitro-benzyl)-amino]-propionamide], which Ki is on record?
A: 10 nM

Q: With `CC(C(=O)NO)N(Cc1ccccc1[N+](=O)[O-])S(=O)(=O)c1ccc(I)cc1` (stereo not given) [N-Hydroxy-2-[(4-iodo-benzenesulfonyl)-(2-nitro-benzyl)-amino]-propionamide] as the compound, how does the Ki read?
A: 34 nM

Q: For `CC(C(=O)NO)N(Cc1ccccc1[N+](=O)[O-])S(=O)(=O)c1ccc([N+](=O)[O-])cc1` (stereo not given) [N-Hydroxy-2-[(4-nitro-benzenesulfonyl)-(2-nitro-benzyl)-amino]-propionamide], which Ki is on record?
A: 13 nM

Q: For `CC(C(=O)NO)N(Cc1ccccc1[N+](=O)[O-])S(=O)(=O)c1cccc2ccccc12` (stereo not given) [N-Hydroxy-2-[(naphthalene-1-sulfonyl)-(2-nitro-benzyl)-amino]-propionamide], which Ki is on record?
A: 6 nM

Q: For `CC(C(=O)NO)N(Cc1ccccc1[N+](=O)[O-])S(=O)(=O)c1ccc2ccccc2c1` (stereo not given) [N-Hydroxy-2-[(naphthalene-2-sulfonyl)-(2-nitro-benzyl)-amino]-propionamide], which Ki is on record?
A: 8 nM

Q: With `CC(C(=O)NO)N(Cc1ccccc1[N+](=O)[O-])S(C)(=O)=O` (stereo not given) [N-Hydroxy-2-[methanesulfonyl-(2-nitro-benzyl)-amino]-propionamide] as the compound, how does the Ki read?
A: 86 nM

Q: With `CC(C(=O)NO)N(Cc1ccccc1[N+](=O)[O-])C(=O)NS(=O)(=O)c1ccccc1` (stereo not given) [N-hydroxy-2-((2-nitrobenzyl){[(phenylsulfonyl)amino]carbonyl}amino)propanamide] as the compound, how does the Ki read?
A: 12 nM

Q: With `Cc1ccccc1S(=O)(=O)NC(=O)N(Cc1ccccc1[N+](=O)[O-])C(C)C(=O)NO` (stereo not given) [N-hydroxy-2-[({[(2-methylphenyl)sulfonyl]amino}carbonyl)(2-nitrobenzyl)amino]propanamide] as the compound, how does the Ki read?
A: 9 nM

Q: For `CC(C(=O)NO)N(Cc1ccccc1[N+](=O)[O-])S(=O)(=O)c1cccc(NC(=O)OC(C)(C)C)c1` (stereo not given) [{3-[(1-Hydroxycarbamoyl-ethyl)-(2-nitro-benzyl)-sulfamoyl]-phenyl}-carbamic acid tert-butyl ester], which Ki is on record?
A: 8 nM

Q: With `CC(C(=O)NO)N(Cc1ccccc1[N+](=O)[O-])S(=O)(=O)c1ccc(NC(=O)OC(C)(C)C)cc1` (stereo not given) [{4-[(1-Hydroxycarbamoyl-ethyl)-(2-nitro-benzyl)-sulfamoyl]-phenyl}-carbamic acid tert-butyl ester] as the compound, how does the Ki read?
A: 9 nM

Q: With `COc1ccc(S(=O)(=O)N(Cc2ccccc2[N+](=O)[O-])C(C)C(=O)NO)cc1NC(=O)OC(C)(C)C` (stereo not given) [{5-[(1-Hydroxycarbamoyl-ethyl)-(2-nitro-benzyl)-sulfamoyl]-2-methoxy-phenyl}-carbamic acid tert-butyl ester] as the compound, how does the Ki read?
A: 9 nM
